From patent US7109193B2, “Tricyclic diazepines tocolytic oxytocin receptor antagonists” (Wyeth, priority 2001, dated 2006)

Molecular target: T1, human vasopressin V2 receptor subtype (Homo sapiens, UniProt P30518)
T1 construct: host or cells: CHO cells (pZeoSV vector)
Test: Vasopressin binding in Chinese Hamster Ovary cell membranes expressing human vasopressin V2 subtype receptors
Conditions: 100 nM, CHO cell membranes, [3H]arginine vasopressin, values without parentheses
How it was run: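 Radioligand displacement on membranes from CHO cells stably expressing human V2 receptor, 25 to 50 μg protein/well, in 50 mM Tris-HCl pH 7.4 with MgCl2, BSA and protease inhibitors. [^3H]arginine vasopressin (8 nM working solution) incubated 60 min at room temperature; bound label measured by filtration and scintillation counting.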

T1 sequence (P30518 whole entry): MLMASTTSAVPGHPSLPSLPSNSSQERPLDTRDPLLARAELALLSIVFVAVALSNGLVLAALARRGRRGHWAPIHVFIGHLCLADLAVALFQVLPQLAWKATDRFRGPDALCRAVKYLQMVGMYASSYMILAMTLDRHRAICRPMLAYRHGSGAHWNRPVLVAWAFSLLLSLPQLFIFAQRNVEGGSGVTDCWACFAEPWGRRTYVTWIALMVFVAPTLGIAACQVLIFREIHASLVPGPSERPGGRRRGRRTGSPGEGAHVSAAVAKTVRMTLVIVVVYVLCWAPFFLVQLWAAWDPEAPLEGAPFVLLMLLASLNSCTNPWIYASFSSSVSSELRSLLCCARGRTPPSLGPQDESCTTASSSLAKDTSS

For `COc1ccccc1-c1ccc(C(=O)N2Cc3ccc(C(=O)N4CCN(CCN(C)C)CC4)n3Cc3ccccc32)cc1OC` [Example 204, {10-[(2,2′-Dimethoxy[1,1′-biphenyl]-4-yl)carbonyl]-10,11-dihydro-5H-pyrrolo[2,1-c][1,4]benzodiazepin-3-yl}{4-[2-(dimethylamino)ethyl]-1-piperazinyl}methanone], the inhibition at 0.1 µM was 6%.
In the case of `COc1ccccc1-c1ccc(C(=O)N2Cc3ccc(C(=O)N(C)C4CCN(C)C4)n3Cc3ccccc32)cc1C` (stereo not shown) [Example 185, 10-[(2′-Methoxy-2-methyl[1,1′-biphenyl]-4-yl)carbonyl]-N-methyl-N-(1-methyl-3-pyrrolidinyl)-10,11-dihydro-5H-pyrrolo[2,1-c][1,4]benzodiazepine-3-carboxamide], the inhibition at 0.1 µM is reported as 27%.
Work on `COc1cc(C(=O)N2Cc3ccc(C(=O)N(C)C4CCN(C)C4)n3Cc3ccccc32)ccc1-c1ccccc1C` (stereo not shown) [Example 189, 10-[(2-Methoxy-2′-methyl[1,1′-biphenyl]-4-yl)carbonyl]-N-methyl-N-(1-methyl-3-pyrrolidinyl)-10,11-dihydro-5H-pyrrolo[2,1-c][1,4]benzodiazepine-3-carboxamide] yielded an inhibition at 0.1 µM of 22%.
For `C=CCN1CCN(C(=O)c2ccc3n2Cc2ccccc2N(C(=O)c2ccc(-c4cccc5ccccc45)cc2Cl)C3)CC1` [Example 229, (4-Allyl-1-piperazinyl){10-[2-chloro-4-(1-naphthyl)benzoyl]-10,11-dihydro-5H-pyrrolo[2,1-c][1,4]benzodiazepin-3-yl}methanone], the inhibition at 0.1 µM was 27%.
For `COc1cccc(-c2cc(OC)c(C(=O)N3Cc4ccc(C(=O)N5CCN(CCN(C)C)CC5)n4Cc4ccccc43)cc2Cl)c1` [Example 202, {10-[(6-Chloro-3,3′-dimethoxy[1,1′-biphenyl]-4-yl)carbonyl]-10,11-dihydro-5H-pyrrolo[2,1-c][1,4]benzodiazepin-3-yl}{4-[2-(dimethylamino)ethyl]-1-piperazinyl}methanone], the inhibition at 0.1 µM was 8%.
For `COc1cccc(-c2ccc(C(=O)N3Cc4ccc(C(=O)N(C)C5CCN(C)CC5)n4Cc4ccccc43)cc2C)c1` [Example 176, 10-[(3′-Methoxy-2-methyl[1,1′-biphenyl]-4-yl)carbonyl]-N-methyl-N-(1-methyl-4-piperidinyl)-10,11-dihydro-5H-pyrrolo[2,1-c][1,4]benzodiazepine-3-carboxamide], the inhibition at 0.1 µM was 18%.
`COc1ccccc1-c1ccc(C(=O)N2Cc3ccc(C(=O)NCCN4CCCCC4)n3Cc3ccccc32)cc1OC` [Example 158, 10-[(2,2′-Dimethoxy[1,1′-biphenyl]-4-yl)carbonyl]-N-[2-(1-piperidinyl)ethyl]-10,11-dihydro-5H-pyrrolo[2,1-c][1,4]benzodiazepine-3-carboxamide] gave an inhibition at 0.1 µM of 19%.
In the case of `COc1cccc(-c2ccc(C(=O)N3Cc4ccc(C(=O)N5CCN(CCN6CCOCC6)CC5)n4Cc4ccccc43)cc2C)c1` [Example 208, {10-[(3′-Methoxy-2-methyl[1,1′-biphenyl]-4-yl)carbonyl]-10,11-dihydro-5H-pyrrolo[2,1-c][1,4]benzodiazepin-3-yl}{4-[2-(4-morpholinyl)ethyl]-1-piperazinyl}methanone], the inhibition at 0.1 µM is reported as 12%.
`COc1cc(C(=O)N2Cc3ccc(C(=O)N4CCN(CCN5CCOCC5)CC4)n3Cc3ccccc32)ccc1-c1cccc2ccccc12` [Example 213, {10-[3-Methoxy-4-(1-naphthyl)benzoyl]-10,11-dihydro-5H-pyrrolo[2,1-c][1,4]benzodiazepin-3-yl}{4-[2-(4-morpholinyl)ethyl]-1-piperazinyl}methanone] was tested, and the inhibition at 0.1 µM was 33%.
`Cc1cc(C(=O)N2Cc3ccc(C(=O)N(C)C4CCN(C)C4)n3Cc3ccccc32)ccc1-c1ccccc1C(F)(F)F` (stereo not shown) [Example 194, N-Methyl-N-(1-methyl-3-pyrrolidinyl)-10-{[2-methyl-2′-(trifluoromethyl)[1,1′-biphenyl]-4-yl]carbonyl}-10,11-dihydro-5H-pyrrolo[2,1-c][1,4]benzodiazepine-3-carboxamide] gave an inhibition at 0.1 µM of 0%.
`COc1cc(C(=O)N2Cc3ccc(C(=O)NCCC4CCCN4C)n3Cc3ccccc32)ccc1-c1ccccc1C` (stereo not shown) [Example 167, 10-[(2-Methoxy-2′-methyl[1,1′-biphenyl]-4-yl)carbonyl]-N-[2-(1-methyl-2-pyrrolidinyl)ethyl]-10,11-dihydro-5H-pyrrolo[2,1-c][1,4]benzodiazepine-3-carboxamide] showed an inhibition at 0.1 µM of 20%.
Work on `COc1ccccc1-c1ccc(C(=O)N2Cc3ccc(C(=O)N(C)C4CCN(C)CC4)n3Cc3ccccc32)cc1` [Example 177, 10-[(2′-Methoxy[1,1′-biphenyl]-4-yl)carbonyl]-N-methyl-N-(1-methyl-4-piperidinyl)-10,11-dihydro-5H-pyrrolo[2,1-c][1,4]benzodiazepine-3-carboxamide] yielded an inhibition at 0.1 µM of 18%.
In the case of `Cc1ccccc1-c1ccc(C(=O)N2Cc3ccc(C(=O)NCCC4CCCN4C)n3Cc3ccccc32)cc1` (stereo not shown) [Example 166, 10-[(2′-Methyl[1,1′-biphenyl]-4-yl)carbonyl]-N-[2-(1-methyl-2-pyrrolidinyl)ethyl]-10,11-dihydro-5H-pyrrolo[2,1-c][1,4]benzodiazepine-3-carboxamide], the inhibition at 0.1 µM is reported as 3%.
For `COc1cccc(-c2cc(OC)c(C(=O)N3Cc4ccc(C(=O)NCCN5CCCCC5)n4Cc4ccccc43)cc2Cl)c1` [Example 156, 10-[(6-Chloro-3,3′-dimethoxy[1,1′-biphenyl]-4-yl)carbonyl]-N-[2-(1-piperidinyl)ethyl]-10,11-dihydro-5H-pyrrolo[2,1-c][1,4]benzodiazepine-3-carboxamide], the inhibition at 0.1 µM was 12%.
With `COc1cc(-c2ccccc2C)c(Cl)cc1C(=O)N1Cc2ccc(C(=O)N3CCN(C(C)C)CC3)n2Cc2ccccc21` [Example 238, {10-[(6-Chloro-3-methoxy-2′-methyl[1,1′-biphenyl]-4-yl)carbonyl]-10,11-dihydro-5H -pyrrolo[2,1-c][1,4]benzodiazepin-3-yl}(4-isopropyl-1-piperazinyl)methanone] the inhibition at 0.1 µM was 27%.
With `COc1cc(C(=O)N2Cc3ccc(C(=O)N(C)C4CCN(C)CC4)n3Cc3ccccc32)ccc1-c1cccc2ccccc12` [Example 182, 10-[3-Methoxy-4-(1-naphthyl)benzoyl]-N-methyl-N-(1-methyl-4-piperidinyl)-10,11-dihydro-5H-pyrrolo[2,1-c][1,4]benzodiazepine-3-carboxamide] the inhibition at 0.1 µM was 35%.
`COc1ccccc1-c1ccc(C(=O)N2Cc3ccc(C(=O)N(C)C4CCN(C)CC4)n3Cc3ccccc32)cc1C` [Example 175, 10-[(2′-Methoxy-2-methyl[1,1′-biphenyl]-4-yl)carbonyl]-N-methyl-N-(1-methyl-4-piperidinyl)-10,11-dihydro-5H-pyrrolo[2,1-c][1,4]benzodiazepine-3-carboxamide] showed an inhibition at 0.1 µM of 17%.
In the case of `O=C(NCCN1CCCCC1)c1ccc2n1Cc1ccccc1N(C(=O)c1ccc(-c3cccc4ccccc34)cc1Cl)C2` [Example 160, 10-[2-Chloro-4-(1-naphthyl)benzoyl]-N-[2-(1-piperidinyl)ethyl]-10,11-dihydro-5H-pyrrolo[2,1-c][1,4]benzodiazepine-3-carboxamide], the inhibition at 0.1 µM is reported as 24%.
For `Cc1ccccc1-c1ccc(C(=O)N2Cc3ccc(C(=O)N4CCN(CCN5CCOCC5)CC4)n3Cc3ccccc32)cc1` [Example 209, {10-[(2′-Methyl[1,1′-biphenyl]-4-yl)carbonyl]-10,11-dihydro-5H-pyrrolo[2,1-c][1,4]benzodiazepin-3-yl}{4-[2-(4-morpholinyl)ethyl]-1-piperazinyl}methanone], the inhibition at 0.1 µM was 10%.
